Assay [1] deals with Chinese females, 25-55 years old with hyperpigmented spots. Put plainly: 9-week randomized, double-blind, vehicle-controlled, split-face tone benefit study. It is filed as in vivo, human. The settings on record: 0.05% in SC-99 vehicle, 2x a day, vs vehicle. An excerpt: This Example provides evidence of the advantages of using composite signatures and illustrates clinical affirmation of the C-map model for predicting efficacy of skin-lightening agents. This Example supports embodiments related to composite signatures (as described at the end of Example 3). An illustrative “Skin Tone” Signature developed from a genomics study using a composite skin-lightening benchmark agent signature is derived from Niacinamide, Hexamidine, Sepiwhite, and NAG. The signature is used to query C-map and generate a list of potential skin-lightening agents. A top hit, Chlorhexidine Diactate (CD) is entered into clinical testing for confirmation of efficacy. The control for clinical efficacy is a 5% Niacinamide+1% Sepiwhite formulation in the control vehicle.
Primary endpoints are changes in color spot area fraction (image analysis) and melanin spot area fraction (NC2) from baseline. Secondary endpoints are changes from baseline in L*a*b (color image analysis), mean melanin gray scale (NC2), and melanin evenness (NC2). Texture area fraction and pore area fraction are also evaluated to explore impact on other aspects relating to overall skin tone. […] Statistically significant superiority to the high efficacy benchmark skin active agent to vehicle performance is the clinical success criteria.
Study Design: The experimental protocol included a 9-week (1-week preconditioning & 8-week treatment), randomized, double-blind, round robin, vehicle-controlled, split-face tone benefit study. The subject population included 330 Chinese females, 25-55 years old with hyperpigmented spots. 318 subjects completed the entire study. […] Olay Complete SPF 15 UV Moisturizing Lotion is concomitantly used during pre-conditioning and treatment. 0.5 g each test product per half-face (forehead to jaw line; ˜4 mg/cm^2) is dosed 2× a day (morning/evening). Color SAF and treatment area, Melanin SAF, gray scale, evenness by NC2, and additional measurement of Fine Lines and Wrinkle and Texture are by REAL 3.01A. Data collection points include baseline, and ends of weeks 4, 6 and 8. The tested hypothesis is that there is no difference in clinical endpoint versus the benchmark composition treatment. Study site is Kuntai Clinical Center, Beijing, China and study time frame is February 2010 (pre-conditioning) to April 2010.

Assay [2] relates to tert-Keratinocyte (tKC) cells. Put plainly: C-map query with the tone composite benchmark signature (Niacinamide, Hexamidine, Sepiwhite, NAG). The class given is cell-based, human. The settings on record: composite signature of Example 3. The procedure:
Individual experiments (referred to as batches) generally comprise 30 to 96 samples analyzed using Affymetrix GeneChip® technology platforms, containing 6 replicates of the vehicle control (e.g., DSMO), 2 replicate samples of a positive control that gives a strong reproducible effect in the cell type used, and samples of the test material/perturbagen. Replication of the test material is done in separate batches due to batch effects. In vitro testing was performed in 6-well plates to provide sufficient RNA for GeneChip® analysis (2-4 μg total RNA yield/well).
Human telomerized keratinocytes (tKC) were obtained from the University of Texas, Southwestern Medical Center, Dallas, Tex. tKC cells were grown in EpiLife® media with 1× Human Keratinocyte Growth Supplement (Invitrogen, Carlsbad, Calif.) on collagen I coated cell culture flasks and plates (Becton Dickinson, Franklin Lakes, N.J.). Keratinocytes were seeded into 6-well plates at 20,000 cells/cm^2 24 hours before chemical exposure. Human skin fibroblasts (BJ cell line from ATCC, Manassas, Va.) were grown in Eagle's Minimal Essential Medium (ATCC) supplemented with 10% fetal bovine serum (HyClone, Logan, Utah) in normal cell culture flasks and plates (Corning, Lowell, Mass.). BJ fibroblasts were seeded into 6-well plates at 12,000 cells/cm^2 24 hours before chemical exposure. […]

On to `CC(=O)O.CC(=O)O.NC(=N\CCCCCC/N=C(N)/N=C(\N)Nc1ccc(Cl)cc1)/N=C(\N)Nc1ccc(Cl)cc1` [CD, Chlorhexidine Diacetate], for which, in assay [1] (week 8), the Basal skin tone result is recorded as “demonstrated superiority”, the Pore area fraction entry is “superior efficacy” and the Texture area fraction result is given as “superior efficacy”. In assay [1] (weeks 6 and 8), the “NC2 Melanin evenness test” value is on record as “superiority to the vehicle” and the “spot area fraction NC2 test” value was “significantly reduced fraction when compared to the vehicle”. Besides, in assay [2], the “connectivity to the tone composite benchmark signature query” value is reported as “top connectivity hit”.

The values above are taken from patent US10468120B2, “Method of generating a hyperpigmentation condition gene expression signature” (The Procter & Gamble Company, priority 2012, dated 2019).
